Patent US7812008B2, “9-substituted tetracyclines” (Wyeth LLC, priority 2005, dated 2010)

Columns and labels:
E. coli GC2270 (tet(M)) = assay: MIC broth microdilution, E. coli GC2270 (tet(M)); assay type: cell-based; conditions: MHBII, 18-22 hours at 35° C.
Method: (§1) Methods for in Vitro Antibacterial Evaluation
(§2) The minimum inhibitory concentration (MIC)
(§3) Antimicrobial susceptibility testing. The in vitro activities of representative examples of antibiotics of the invention are determined by the broth microdilution method as recommended by the National Committee for Clinical Laboratory Standards (NCCLS) (1). Mueller-Hinton II broth (MHBII)(BBL Cockeysville, Md.) is the medium employed in the testing procedures. Microtiter plates containing serial dilutions of each antimicrobial agent are inoculated with each organism to yield the appropriate density (10^5 CFU/ml) in a 100 μl final volume. The plates are incubated for 18-22 hours at 35° C. in ambient air. […] NCCLS. 2000. Methods for Dilution Antimicrobial Susceptibility Tests for Bacteria That Grow Aerobically; Approved Standards: M7-A5, vol. 20. National Committe for Clinical Laboratory Standards, Wayne, Pa.

[1] = test system: E. coli GC4559 (parent GC4560); assay: MIC broth microdilution, E. coli GC4559 (parent GC4560); assay type: cell-based; conditions: MHBII, 18-22 hours at 35° C.
Method: as §1, §2, §3

[2] = test system: E. coli GC4560 (IMP mutant); assay: MIC broth microdilution, E. coli GC4560 (IMP mutant); assay type: cell-based; conditions: MHBII, 18-22 hours at 35° C.
Method: as §1, §2, §3

[3] = test system: E. coli GC2203 (ATCC Control); assay: MIC broth microdilution, E. coli GC2203 (ATCC Control); assay type: cell-based; conditions: MHBII, 18-22 hours at 35° C.
Method: as §1, §2, §3

E. coli GC1073 (tet(B)) = assay: MIC broth microdilution, E. coli GC1073 (tet(B)); assay type: cell-based; conditions: MHBII, 18-22 hours at 35° C.
Method: as §1, §2, §3

[4] = test system: S. aureus GC1131 (Clinical); assay: MIC broth microdilution, S. aureus GC1131 (Clinical); assay type: cell-based; conditions: MHBII, 18-22 hours at 35° C.
Method: as §1, §2, §3

[5] = test system: S. aureus GC6466 (tet(M)); assay: MIC broth microdilution, S. aureus GC6466 (tet(M)); assay type: cell-based; conditions: MHBII, 18-22 hours at 35° C.
Method: as §1, §2, §3

[6] = test system: S. aureus GC6467 (tet(M) + (K)); assay: MIC broth microdilution, S. aureus GC6467 (tet(M) + (K)); assay type: cell-based; conditions: MHBII, 18-22 hours at 35° C.
Method: as §1, §2, §3

[7] = test system: S. aureus GC1079 (tet(K)); assay: MIC broth microdilution, S. aureus GC1079 (tet(K)); assay type: cell-based; conditions: MHBII, 18-22 hours at 35° C.
Method: as §1, §2, §3

[8] = test system: S. aureus GC4536 (Smith MP -In Vivo); assay: MIC broth microdilution, S. aureus GC4536 (Smith MP -In Vivo); assay type: cell-based; conditions: MHBII, 18-22 hours at 35° C.
Method: as §1, §2, §3

[9] = test system: S. aureus GC2216 (ATCC Control); assay: MIC broth microdilution, S. aureus GC2216 (ATCC Control); assay type: cell-based; conditions: MHBII, 18-22 hours at 35° C.
Method: as §1, §2, §3

[10] = test system: E. faecalis GC4555 (ATCC Control); assay: MIC broth microdilution, E. faecalis GC4555 (ATCC Control); assay type: cell-based; conditions: MHBII, 18-22 hours at 35° C.
Method: as §1, §2, §3

[11] = test system: E. faecalis GC2267 (tet(L) + (M) + (S)); assay: MIC broth microdilution, E. faecalis GC2267 (tet(L) + (M) + (S)); assay type: cell-based; conditions: MHBII, 18-22 hours at 35° C.
Method: as §1, §2, §3

[12] = test system: E. faecalis GC2242 (Van-resistant); assay: MIC broth microdilution, E. faecalis GC2242 (Van-resistant); assay type: cell-based; conditions: MHBII, 18-22 hours at 35° C.
Method: as §1, §2, §3

[13] = test system: S. pneumoniae* GC4465 (Clinical); assay: MIC broth microdilution, S. pneumoniae GC4465 (Clinical); assay type: cell-based; conditions: 18-22 hours at 35° C.
Method: as §1, §2, §3

[14] = test system: S. pneumoniae* GC1894 (Clinical); assay: MIC broth microdilution, S. pneumoniae GC1894 (Clinical); assay type: cell-based; conditions: 18-22 hours at 35° C.
Method: as §1, §2, §3

[15] = test system: S. pyogenes* GC4563 (Clinical); assay: MIC broth microdilution, S. pyogenes GC4563 (Clinical); assay type: cell-based; conditions: 18-22 hours at 35° C.
Method: as §1, §2, §3

[16] = test system: M. catarrhalis* GC6907 (Clinical); assay: MIC broth microdilution, M. catarrhalis GC6907 (Clinical); assay type: cell-based; conditions: 18-22 hours at 35° C.
Method: as §1, §2, §3

[17] = test system: H. influenzae<> GC6896 (ATCC Control); assay: MIC broth microdilution, H. influenzae GC6896 (ATCC Control); assay type: cell-based; conditions: 18-22 hours at 35° C.
Method: as §1, §2, §3

[18] = test system: C. albicans GC3066 ATCC (Control); assay: MIC broth microdilution, C. albicans GC3066 ATCC (Control); assay type: cell-based; conditions: 18-22 hours at 35° C.
Method: as §1, §2, §3

[19] = test system: Staphylococcal aureus Smith M P; assay: In vivo antibacterial evaluation, acute lethal infection in mice; conditions: single oral dose 30 minutes after intraperitoneal challenge; female CD-1 mice; 7 day survival ratios, 3 tests pooled
Method: In Vivo Antibacterial Evaluation: The therapeutic effects of representative examples of the invention are determined against acute lethal infection with Staphylococcal aureus Smith M P, Female mice, strain CD-1 (Charles River Laboratoties), ca. 20 grams, are challenged by an intraperitoneal injection of sufficient bacteria (suspended in broth or hog mucin) to kill non-treated controls within 24-28 hours. Antibacterial agents, contained in 0.5 ml of 0.2% aqueous agar, are administered subcutaneously or orally 30 minutes after injection. When an oral dosing schedule is used, animal are deprived of food for 5 hours before and 2 hours after injection. Five mice are treated at each dose level. The 7 day survival ratios from 3 separate tests are pooled for calculation of median effective dose (ED50).

[20] = test system: Staphylococcal aureus Smith M P; assay: as above; conditions: single intraveneous dose; female CD-1 mice; 7 day survival ratios, 3 tests pooled

Compound | minimum inhibitory concentration (MIC) (E. coli GC2270 (tet(M))) | minimum inhibitory concentration (MIC) [1] | minimum inhibitory concentration (MIC) [2] | minimum inhibitory concentration (MIC) [3] | minimum inhibitory concentration (MIC) (E. coli GC1073 (tet(B))) | minimum inhibitory concentration (MIC) [4] | minimum inhibitory concentration (MIC) [5] | minimum inhibitory concentration (MIC) [6] | minimum inhibitory concentration (MIC) [7] | minimum inhibitory concentration (MIC) [8] | minimum inhibitory concentration (MIC) [9] | minimum inhibitory concentration (MIC) [10] | minimum inhibitory concentration (MIC) [11] | minimum inhibitory concentration (MIC) [12] | minimum inhibitory concentration (MIC) [13] | minimum inhibitory concentration (MIC) [14] | minimum inhibitory concentration (MIC) [15] | minimum inhibitory concentration (MIC) [16] | minimum inhibitory concentration (MIC) [17] | minimum inhibitory concentration (MIC) [18] | other results
CN(C)[C@@H]1C(O)=C(C(N)=O)C(=O)[C@@]2(O)C(O)=C3C(=O)c4c(O)c(NC(=O)CN5CCCCO5)cc(-c5cccs5)c4C[C@H]3C[C@@H]12 [Example 10, (4S,4aS,5aR,12aS)-4-(dimethylamino)-3,10,12,12a-tetrahydroxy-9-[(1,2-oxazinan-2-ylacetyl)amino]-1,11-dioxo-7-thien-2-yl-1,4,4a,5,5a,6,11,12a-octahydrotetracene-2-carboxamide] | >64 | >64 | 4 | >64 | >64 | 4 | 2 | 8 | 4 | 4 | 4 | 8 | 4 | 4 | 2 | 2 | 2 | 2 | >64 | >64 | –
CN(C)[C@@H]1C(O)=C(C(N)=O)C(=O)[C@@]2(O)C(O)=C3C(=O)c4c(O)c(NC(=O)CN5CCCCO5)cc(I)c4C[C@H]3C[C@@H]12 [Example 9, (4S,4aS,5aR,12aS)-4-(dimethylamino)-3,10,12,12a-tetrahydroxy-7-iodo-9[(1,2-oxazinan-2-ylacetyl)amino]-1,11-dioxo-1,4,4a,5,5a,6,11,12a-octahydrotetracene-2-carboxamide] | >64 | >64 | 2 | >64 | >64 | 2 | 1 | 4 | 2 | 4 | 1 | 4 | 2 | 8 | 1 | 0.50 | 1 | 2 | >64 | >64 | –
CN(C)c1cc(NC(=O)CNC(C)(C)C)c(O)c2c1C[C@H]1C[C@H]3[C@H](N(C)C)C(O)=C(C(N)=O)C(=O)[C@@]3(O)C(O)=C1C2=O [GAR-936, reference compound] | – | – | – | – | – | – | – | – | – | – | – | – | – | – | – | – | – | – | – | – | SOD* ED50 [19]: 36 mg/kg; SIV* ED50 [20]: 0.46 mg/kg
